# Measured values published in publication PMC2361459, “Safety, tolerability and pharmacokinetics of intravenous ghrelin for cancer-related anorexia/cachexia: a randomised, placebo-controlled, double-blind, double-crossover study” (British Journal of Cancer, 2008).
# Tests used:
# [1] = tested on: patients with advanced incurable cancer and anorexia/cachexia; experiment: Autonomic function: standard deviation of beat-to-beat intervals (SDNN); type: in vivo, human; conditions: UD (n=9), ghrelin, P=NS
# Protocol: Autonomic dysfunction was assessed as described previously ([Strasser et al, 2006]). Standard deviation of beat-to-beat intervals (SDNN) was analysed at baseline and at end of study for 20 min in both the LD and UD; and in the UD, in addition, 30 min before infusion until after lunch on treatment days.
# (§1) All analyses were performed with SPSS (Version 11.5).
# [2] = tested on: patients with advanced incurable cancer and anorexia/cachexia; experiment: Radiological tumour measurements; type: in vivo, human
# Protocol: Patients were assessed at each visit by using the NCI-CTC toxicity criteria Version 3.0, including standard blood examinations (hematology, chemistry panels), and cardiology evaluations, including echocardiography at baseline and at end of study. […] On study day 7 and at end of study, patients were asked about their perception of their tolerance and preference of day 1 (and 7) vs day 4 (and 11) treatments. […] An independent radiologist reviewed all films made before baseline, at baseline, and at end of study to judge tumour size and dynamics.
# [3] = set-up: species or system human; conditions: in vivo
# Protocol: (§2) Normal saline was used as placebo.
# (§3) For ghrelin assays, 5 ml blood was collected in a precooled EDTA vacutainer tube containing aprotinin (33 kIU), placed immediately on ice, and centrifuged (4°C, 3000 G, 5 min). For each millilitre of plasma, 10 μl PMSF-Isopropanol, 50 μl 1N-HCL, and 50 μl aprotinin were added, and aliquots were stored at −80°C until batch analysis. Serum was collected and cooled for GH, insulin-like growth factor 1 (IGF-1), interleukin-6 (IL-6), and leptin analysis. Testosterone radioimmunoassays (Diagnostic Products Corporation; Bühlmann, Salzburg, Austria) were performed from serum sent to routine safety labs. The radioimmunoassay kits used for total and active ghrelin were from Linco Research (St Charles, MO, USA); for GH (active GH IRMA immunoradiometric assay) from Diagnostic Systems Laboratory (Webster, TX, USA); for IGF-1 (human, bovine) from Peninsula Laboratories (San Carlos, CA, USA); for IL-6 (Quantikine human ELISA) from R&D Systems (Minneapolis, MN, USA); and for leptin (human RIA) from Millipore (Billerica, MA, USA).
# as §1
# interleukin-6 = experiment: Plasma IL-6 levels (ELISA); type: in vivo, human; conditions: throughout the treatment period; results not shown
# Protocol: as §3
# cancer patients = conditions: seven cancer patients; 5 pmol kg^−1 min^−1 for 180 min equals 3 μg kg^−1; no adverse effects; ref Neary et al, 2004; cited from earlier work
# Excerpt: In melanoma-bearing nude mice, ghrelin plasma concentration increased with cachexia progression ([Hanada et al, 2004]). In cancer patients with cachexia (various cancers, n=21 ([Garcia et al, 2005]); breast and colorectal cancer, n=18 ([Wolf et al, 2006]); lung cancer, n=21 ([Shimizu et al, 2003])), ghrelin morning fasting levels were 1.3- to 1.5-fold higher than in those without cachexia and healthy controls. In contrast, ghrelin levels were normal in subgroups of patients in one study (39%) ([Wolf et al, 2006]) and all patients in another study (gastric and colorectal cancer, n=58) ([Huang e ...
# [4] = stated in discussion, no reference given; cited from earlier work
# Protocol: Ghrelin levels were normal before infusion at 1030 hours. Renal function was not impaired. These unexpected findings of total, but not active, ghrelin remain unexplained at present but may indeed be without any physiological significance.
# [5] = tested on: patients with advanced incurable cancer and anorexia/cachexia; conditions: human, in vivo
# Excerpt: On study day 7 and at end of study, patients were asked about their perception of their tolerance and preference of day 1 (and 7) vs day 4 (and 11) treatments.
# For exploratory analyses of patients' preference of treatment, we used the exact binominal test.
# [6] = tested on: patients with advanced incurable cancer and anorexia/cachexia; conditions: in vivo
# Protocol: In a randomised, double-blind, placebo-controlled, double-crossover trial, 4–5 days after baseline, patients received ghrelin on days 1 and 8 and placebo on days 4 and 11 or vice versa; end of study was day 17/18 (Figure 1).
# On treatment days, patients ingested only water from midnight to breakfast. In the outpatient clinic, safety laboratory values and fasting hormone blood samples (including testosterone in male patients) were drawn at 0800 hours; venous access was maintained for pharmacokinetics. Patients received a standardised breakfast (120 g bread, 20 g butter, 60 g jam, 200 ml coffee with milk). At 1000 hours, a second i.v. line was inserted in the other arm for treatment given from 1030 to 1130 hours. Immediately after the end of the infusion, patients walked for approximately 5 min the 90 m to the restaurant where they received priority serving, starting the meal within 5 min.
# Ghrelin of Good Manufacturing Practice quality was purchased from Clinalfa (Merck Biosciences, Switzerland) as vials of 88 μg, stored at −20°C, and dissolved in 250 ml normal saline by the hospital pharmacy immediately before application. The treatment was titrated up within the first 10 min (20% increase each 2 min) and maintained for the next 50 min. The lower-dose group (LD) received 10 pmol kg^−1 min^−1 (equals 0.0336 μg kg^−1 min^−1, approximately 2 μg kg^−1). […] After observing treatment tolerance in the LD patients, we administered the upper-dose group (UD) 40 pmol kg^−1 min^−1 (approximately 8 μg kg^−1). Normal saline was used as placebo.
# Patients were assessed at each visit by using the NCI-CTC toxicity criteria Version 3.0, including standard blood examinations (hematology, chemistry panels), and cardiology evaluations, including echocardiography at baseline and at end of study. During the treatment phase, research personnel regularly contacted patients at home during the daytime to check for their safety. […] On study day 7 and at end of study, patients were asked about their perception of their tolerance and preference of day 1 (and 7) vs day 4 (and 11) treatments.
# growth hormone (GH) = experiment: Serum growth hormone (GH) response to i.v. ghrelin (IRMA); type: in vivo, human
# Protocol: as §2, §3, §1
# [7] = tested on: insulin-like growth factor 1; experiment: Serum insulin-like growth factor 1 (IGF-1) levels; type: in vivo, human
# Protocol: as §3, §1
smiles,measurement,setting,value
CCCCCCCC(=O)OC[C@H](NC(=O)[C@H](CO)NC(=O)CN)C(=O)N[C@@H](Cc1ccccc1)C(=O)N[C@@H](CC(C)C)C(=O)N[C@@H](CO)C(=O)N1CCC[C@H]1C(=O)N[C@@H](CCC(=O)O)C(=O)N[C@@H](Cc1cnc[nH]1)C(=O)N[C@@H](CCC(N)=O)C(=O)N[C@@H](CCCNC(=N)N)C(=O)N[C@H](C(=O)N[C@@H](CCC(N)=O)C(=O)N[C@@H](CCC(N)=O)C(=O)N[C@@H](CCCNC(=N)N)C(=O)N[C@@H](CCCCN)C(=O)N[C@@H](CCC(=O)O)C(=O)N[C@@H](CO)C(=O)N[C@@H](CCCCN)C(=O)N[C@@H](CCCCN)C(=O)N1CCC[C@H]1C(=O)N1CCC[C@H]1C(=O)N[C@@H](C)C(=O)N[C@@H](CCCCN)C(=O)N[C@@H](CC(C)C)C(=O)N[C@@H](CCC(N)=O)C(=O)N1CCC[C@H]1C(=O)N[C@@H](CCCNC(=N)N)C(=O)O)C(C)C [ghrelin],mean SDNN,"[1]; week 1, placebo 78±35",84 ± 40 ms
same,mean SDNN,"[1]; week 2, placebo 80±27",75 ± 35 ms
same,patients with progressive disease (PD) during the study period,"[2]; both dose groups, crossover ghrelin/placebo",two
same,tumour-growth dynamics,[2]; short intervals of tumour measurements,no major unexpected tumour-growth dynamics
same,morning fasting total ghrelin levels 3 days after the prior ghrelin infusion compared to after placebo,[3],elevated
same,plasma levels of IL-6,interleukin-6,did not change
same,"energy intake with i.v. ghrelin, higher than with placebo",cancer patients,31%
same,half-life,[4],approximately 15 min
same,mean scores for tolerability of the study medication immediately after infusion and after lunch,[5],did not differ between ghrelin and placebo
same,"abdominal pain, between infusion days (drug-related adverse events, grade 1 or 2)",[6],2
same,"abdominal pain, during infusion on treatment days (drug-related adverse events, grade 1 or 2)",[6],3
same,"abnormal liver tests or low potassium, possibly or probably related adverse events",[6],three
same,"asthenia, during infusion on treatment days (drug-related adverse events, grade 1 or 2)",[6],1
same,body temperature and oxygen saturation during and after the infusion,[6],remained unchanged
same,"diarrhea, between infusion days (drug-related adverse events, grade 1 or 2)",[6],1
same,"dry mouth, during infusion on treatment days (drug-related adverse events, grade 1 or 2)",[6],3
same,"increased CRP, possibly or probably related adverse events",[6],two
same,"nausea, between infusion days (drug-related adverse events, grade 1 or 2)",[6],1
same,"shortness of breath (overeaten, aspiration), during infusion on treatment days (drug-related adverse events, grade 1 or 2)",[6],1
same,"sweating, during infusion on treatment days (drug-related adverse events, grade 1 or 2)",[6],2
same,"vomiting, between infusion days (drug-related adverse events, grade 1 or 2)",[6],1
same,"worsening of pre-existing neuropathy, during infusion on treatment days (drug-related adverse events, grade 1 or 2)",[6],1
same,mean difference of the peak GH levels (of week 1 and week 2) compared to baseline,"growth hormone (GH); LD, 10 pmol kg^−1 min^−1 (about 2 μg kg^−1) i.v., SD 6, P=0.004 vs UD",28 ng/mL
same,mean difference of the peak GH levels (of week 1 and week 2) compared to baseline,"growth hormone (GH); UD, 40 pmol kg^−1 min^−1 (about 8 μg kg^−1) i.v., SD 20, P=0.004 vs LD",50 ng/mL
same,peak increase of GH,"growth hormone (GH); upper-dose ghrelin 8 μg kg^−1 i.v. over 60 min, cancer patients",42 ng/mL
same,mean IGF-1 at day 17/18,"[7]; LD (n=7), ±994",1359 pg per 100 μl
same,mean IGF-1 at day 17/18,"[7]; UD (n=9), ±495",1096 pg per 100 μl
same,insulin-like growth factor 1 levels,"[7]; both dose groups, over the study",did not change
